# Molecular target: human Nav1.7 (Homo sapiens (Human), UniProt Q15858)
# Test: Nav 1.7 In Vitro PX Assay (PatchXpress whole cell voltage clamp)
# Format: cell-based
# Conditions: in-vitro Nav 1.7 PX data
# Outline: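 HEK293 cells stably expressing human Nav1.7, automated whole-cell clamp at a holding potential giving 20–50% inactivation; 20 ms steps to −10 mV at 0.1 Hz. One concentration per cell for 3 min; peak current inhibition at end of exposure, 3–5 cells per concentration, IC50 fitted from % inhibition.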
# human Nav1.7, sequence (Q15858 whole entry): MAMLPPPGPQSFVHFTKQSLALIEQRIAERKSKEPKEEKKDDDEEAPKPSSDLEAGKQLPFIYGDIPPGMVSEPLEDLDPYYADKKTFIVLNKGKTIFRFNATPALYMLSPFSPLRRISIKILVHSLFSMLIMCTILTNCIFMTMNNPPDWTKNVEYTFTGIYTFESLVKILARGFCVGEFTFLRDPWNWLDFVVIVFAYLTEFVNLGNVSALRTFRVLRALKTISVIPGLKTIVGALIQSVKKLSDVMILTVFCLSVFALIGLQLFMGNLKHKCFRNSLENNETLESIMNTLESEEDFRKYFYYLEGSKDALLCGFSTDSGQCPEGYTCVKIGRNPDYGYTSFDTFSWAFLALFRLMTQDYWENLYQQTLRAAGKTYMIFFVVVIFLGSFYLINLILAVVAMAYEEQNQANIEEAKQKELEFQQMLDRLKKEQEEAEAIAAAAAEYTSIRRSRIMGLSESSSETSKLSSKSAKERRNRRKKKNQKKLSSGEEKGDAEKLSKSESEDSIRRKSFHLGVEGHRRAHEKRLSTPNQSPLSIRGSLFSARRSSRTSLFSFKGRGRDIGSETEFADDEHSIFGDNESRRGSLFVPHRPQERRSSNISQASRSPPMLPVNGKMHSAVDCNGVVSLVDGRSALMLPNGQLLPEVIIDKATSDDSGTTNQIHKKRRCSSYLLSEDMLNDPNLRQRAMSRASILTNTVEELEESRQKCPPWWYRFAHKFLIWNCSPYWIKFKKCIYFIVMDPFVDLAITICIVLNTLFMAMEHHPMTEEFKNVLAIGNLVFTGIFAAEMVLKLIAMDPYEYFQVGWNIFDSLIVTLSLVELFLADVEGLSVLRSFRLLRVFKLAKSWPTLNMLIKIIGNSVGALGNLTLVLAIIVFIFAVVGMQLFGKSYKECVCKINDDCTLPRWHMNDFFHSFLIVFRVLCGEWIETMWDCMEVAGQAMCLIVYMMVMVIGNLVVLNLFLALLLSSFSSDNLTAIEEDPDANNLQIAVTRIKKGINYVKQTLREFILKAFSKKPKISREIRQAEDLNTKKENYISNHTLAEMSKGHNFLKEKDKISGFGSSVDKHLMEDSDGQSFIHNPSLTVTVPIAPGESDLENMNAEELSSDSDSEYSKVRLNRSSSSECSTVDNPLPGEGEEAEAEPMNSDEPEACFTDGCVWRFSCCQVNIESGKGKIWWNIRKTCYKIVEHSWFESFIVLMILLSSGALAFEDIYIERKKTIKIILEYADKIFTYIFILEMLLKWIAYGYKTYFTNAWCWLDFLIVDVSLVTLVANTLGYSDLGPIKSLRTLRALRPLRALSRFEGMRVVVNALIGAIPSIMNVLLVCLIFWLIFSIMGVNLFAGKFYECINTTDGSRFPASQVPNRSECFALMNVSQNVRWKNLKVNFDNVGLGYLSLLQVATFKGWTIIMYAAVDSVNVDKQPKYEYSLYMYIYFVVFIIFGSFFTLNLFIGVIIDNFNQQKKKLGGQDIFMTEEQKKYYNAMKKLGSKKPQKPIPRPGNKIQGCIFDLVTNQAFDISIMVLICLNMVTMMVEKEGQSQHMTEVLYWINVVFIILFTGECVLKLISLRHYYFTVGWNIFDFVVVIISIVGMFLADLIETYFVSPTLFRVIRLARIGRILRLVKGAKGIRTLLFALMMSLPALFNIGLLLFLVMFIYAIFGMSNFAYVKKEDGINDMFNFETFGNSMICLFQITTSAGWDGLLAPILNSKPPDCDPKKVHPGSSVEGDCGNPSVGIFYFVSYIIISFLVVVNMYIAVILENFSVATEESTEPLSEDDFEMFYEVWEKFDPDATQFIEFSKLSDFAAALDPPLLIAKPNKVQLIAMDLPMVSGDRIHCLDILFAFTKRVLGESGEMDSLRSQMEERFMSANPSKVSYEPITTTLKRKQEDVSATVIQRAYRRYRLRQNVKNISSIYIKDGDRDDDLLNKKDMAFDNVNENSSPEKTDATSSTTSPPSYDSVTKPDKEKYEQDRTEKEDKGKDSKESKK
row,IC50 [µM],SMILES
1,0.016,"CNC(=O)N(c1ccc(S(=O)(=O)Nc2ccon2)cn1)c1cc(F)c(-c2cc(Cl)c(F)c(OC)c2)cc1OC [Example 1-25, 6-((3′-chloro-2,4′-difluoro-5,5′-dimethoxy-4-biphenylyl)(methylcarbamoyl)amino)-N-3-isoxazolyl-3-pyridinesulfonamide]"
2,0.018,"CNC(=O)N(c1ccc(S(=O)(=O)Nc2ncccn2)cn1)c1cc(F)c(-c2ccc(F)c(Cl)c2)cc1OC [Example 2-1, 6-((3′-chloro-2,4′-difluoro-5-methoxy-4-biphenylyl)(methylcarbamoyl)amino)-N-2-pyrimidinyl-3-pyridinesulfonamide]"
3,0.101,"CNC(=O)N(c1ccc(S(=O)(=O)Nc2ccon2)cn1)c1ccc(-c2cc(Cl)cc(OC)c2)cc1OC [Example 1-72, 6-((3′-chloro-3,5′-dimethoxy-4-biphenylyl)(methylcarbamoyl)amino)-N-3-isoxazolyl-3-pyridinesulfonamide]"
4,0.026,"CNC(=O)N(c1ccc(S(=O)(=O)Nc2ccnc(C)n2)cn1)c1cc(Cl)c(-c2ccc(F)c(C(F)(F)F)c2)cc1OC [Example 3-11, 6-((2-chloro-4′-fluoro-5-methoxy-3′-(trifluoromethyl)-4-biphenylyl)(methylcarbamoyl)amino)-N-(2-methyl-4-pyrimidinyl)-3-pyridinesulfonamide]"
5,0.034,"CCOc1cc(-c2cc(OC)c(N(C(=O)NC)c3ccc(S(=O)(=O)Nc4ccon4)cn3)cc2Cl)ccc1F [Example 1-67, 6-((2-chloro-3′-ethoxy-4′-fluoro-5-methoxy-4-biphenylyl)(methylcarbamoyl)amino)-N-3-isoxazolyl-3-pyridinesulfonamide]"
6,0.029,"CNC(=O)N(c1ccc(S(=O)(=O)Nc2ccon2)cn1)c1cc(Cl)c(-c2cc(OC)nc(C(F)(F)F)c2)cc1OC [Example 1-42, 6-((5-chloro-2-methoxy-4-(2-methoxy-6-(trifluoromethyl)-4-pyridinyl)phenyl)(methylcarbamoyl)amino)-N-3-isoxazolyl-3-pyridinesulfonamide]"
7,0.059,"CNC(=O)N(c1ccc(S(=O)(=O)Nc2ccon2)cn1)c1cc(Cl)c(-c2cc(OC)c(F)c(OC)c2)cc1OC [Example 1-66, 6-((2-chloro-4′-fluoro-3′,5,5′-trimethoxy-4-biphenylyl)(methylcarbamoyl)amino)-N-3-isoxazolyl-3-pyridinesulfonamide]"
8,0.026,"CNC(=O)N(c1ccc(S(=O)(=O)Nc2cccnn2)cn1)c1cc(Cl)c(-c2cc(OC)nc(C(F)(F)F)c2)cc1OC [Example 2-6, 6-((5-chloro-2-methoxy-4-(2-methoxy-6-(trifluoromethyl)-4-pyridinyl)phenyl)(methylcarbamoyl)amino)-N-3-pyridazinyl-3-pyridinesulfonamide]"
9,0.043,"CNC(=O)N(c1ccc(S(=O)(=O)Nc2ccon2)cn1)c1cc(Cl)c(-c2ccc(Cl)c(OC)c2)cc1OC [Example 1-33, 6-((2,4′-dichloro-3′,5-dimethoxy-4-biphenylyl)(methylcarbamoyl)amino)-N-3-isoxazolyl-3-pyridinesulfonamide]"
10,0.124,"CNC(=O)N(c1ccc(S(=O)(=O)Nc2ccon2)cn1)c1cc(F)c(-c2ccc(C)c(F)c2)cc1OC [Example 1-15, 6-((2,3′-difluoro-5-methoxy-4′-methyl-4-biphenylyl)(methylcarbamoyl)amino)-N-3-isoxazolyl-3-pyridinesulfonamide]"
11,0.02,"CNC(=O)N(c1ccc(S(=O)(=O)Nc2ncco2)cn1)c1cc(Cl)c(-c2ccc(F)c(C(F)(F)F)c2)cc1OC [Example 3-10, 6-((2-chloro-4′-fluoro-5-methoxy-3′-(trifluoromethyl)-4-biphenylyl)(methylcarbamoyl)amino)-N-1,3-oxazol-2-yl-3-pyridinesulfonamide]"
12,0.123,"CNC(=O)N(c1ccc(S(=O)(=O)Nc2ncccn2)cn1)c1cc(Cl)c(-c2cc(Cl)cc(C#N)c2)cc1OC [Example 1-78, 6-((2,3′-dichloro-5′-cyano-5-methoxy-4-biphenylyl)(methylcarbamoyl)amino)-N-2-pyrimidinyl-3-pyridinesulfonamide]"
13,0.028,"CNC(=O)N(c1ccc(S(=O)(=O)Nc2ncccn2)cn1)c1cc(Cl)c(-c2ccc(F)c(C(F)(F)F)c2)cc1OC [Example 3-7, 6-((2-chloro-4′-fluoro-5-methoxy-3′-(trifluoromethyl)-4-biphenylyl)(methylcarbamoyl)amino)-N-2-pyrimidinyl-3-pyridinesulfonamide]"
14,0.045,"CNC(=O)N(c1ccc(S(=O)(=O)Nc2ncccn2)cn1)c1cc(F)c(-c2ccc(Cl)c(C(F)(F)F)c2)cc1OC [Example 1-89, 6-((4′-chloro-2-fluoro-5-methoxy-3′-(trifluoromethyl)-4-biphenylyl)(methylcarbamoyl)amino)-N-2-pyrimidinyl-3-pyridinesulfonamide]"
15,0.018,"CNC(=O)N(c1ccc(S(=O)(=O)Nc2ccon2)cn1)c1cc(F)c(-c2cc(OC)cc(C(F)(F)F)c2)cc1OC [Example 1-9, 6-((2-fluoro-3′,5-dimethoxy-5′-(trifluoromethyl)-4-biphenylyl)(methylcarbamoyl)amino)-N-3-isoxazolyl-3-pyridinesulfonamide]"
16,0.039,"CNC(=O)N(c1ccc(S(=O)(=O)Nc2ncccn2)cn1)c1cc(F)c(-c2ccc(Cl)c(C)c2)cc1OC [Example 1-80, 6-((4′-chloro-2-fluoro-5-methoxy-3′-methyl-4-biphenylyl)(methylcarbamoyl)amino)-N-2-pyrimidinyl-3-pyridinesulfonamide]"
17,0.046,"CNC(=O)N(c1ccc(S(=O)(=O)Nc2ccon2)cn1)c1cc(Cl)c(-c2ccc(C(F)(F)F)c(OC)c2)cc1OC [Example 1-46, 6-((2-chloro-3′,5-dimethoxy-4′-(trifluoromethyl)-4-biphenylyl)(methylcarbamoyl)amino)-N-3-isoxazolyl-3-pyridinesulfonamide]"
18,0.106,"CNC(=O)N(c1ccc(S(=O)(=O)Nc2cccnn2)cn1)c1cc(F)c(-c2ccc(Cl)c(C)c2)cc1OC [Example 1-2, 6-((4′-chloro-2-fluoro-5-methoxy-3′-methyl-4-biphenylyl)(methylcarbamoyl)amino)-N-3-pyridazinyl-3-pyridinesulfonamide]"
19,0.009,"CNC(=O)N(c1ccc(S(=O)(=O)Nc2ccon2)cn1)c1cc(Cl)c(-c2cc(OC)cc(OC(F)(F)F)c2)cc1OC [Example 1-51, 6-((2-chloro-3′,5-dimethoxy-5′-(trifluoromethoxy)-4-biphenylyl)(methylcarbamoyl)amino)-N-3-isoxazolyl-3-pyridinesulfonamide]"
20,0.21,"CNC(=O)N(c1ccc(S(=O)(=O)Nc2ccon2)cc1)c1cc(F)c(-c2ccc(F)c(OC(F)(F)F)c2)cc1OC [Example 10, 4-(1-(2,4′-difluoro-5-methoxy-3′-(trifluoromethoxy)-[1,1′-biphenyl]-4-yl)-3-methylureido)-N-(isoxazol-3-yl)benzenesulfonamide]"
21,0.125,"CNC(=O)N(c1ccc(S(=O)(=O)Nc2ccon2)cn1)c1cc(Cl)c(-c2ccc(F)cc2)cc1OC [Example 1-44, 6-((2-chloro-4′-fluoro-5-methoxy-4-biphenylyl)(methylcarbamoyl)amino)-N-3-isoxazolyl-3-pyridinesulfonamide]"
22,0.018,"CNC(=O)N(c1ccc(S(=O)(=O)Nc2ncccn2)cn1)c1cc(F)c(-c2cc(OC)cc(C(F)(F)F)c2)cc1OC [Example 1-82, 6-((2-fluoro-3′,5-dimethoxy-5′-(trifluoromethyl)-4-biphenylyl)(methylcarbamoyl)amino)-N-2-pyrimidinyl-3-pyridinesulfonamide]"

# From patent US10668067B2, “Pyridine sulfonamides” (AMGEN INC., priority 2016, dated 2020)
